US9243247B2, “Composition for promoting apoptosis or inhibiting cell growth, comprising epstein-barr virus microrna” (Catholic University Industry Academic Cooperation Foundation, priority 2011, dated 2016)

Assays:
Format in all cases: cell-based
AGS cell strain [1] = assay: Measurement of apoptosis (Annexin V staining, FACS); settings: for Relative Apoptotic cell: mimic 10 nM, 10 uM 5-FU 24 h after transfection, then 48 hours, Annexin V, relative to scrambled control (=1), n=9
Summary of the method: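 EBV-negative AGS cells (2×10^5/well) were transfected with 10 nM synthetic miRNA. Twenty-four hours later they received 10 uM 5-FU for 48 h at 37 °C. The apoptotic cell ratio was measured by PE Annexin V staining and FACS.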

AGS cell strain [2] = assay: Effect on cell cycle (propidium iodide staining, FACS, sub G1); settings: for Relative Sub G1: mimic 10 nM, 10 uM 5-FU 24 h after transfection, then 48 hours, relative to scrambled control (=1)
Summary of the method: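 AGS gastric cells (EBV-negative), 2×10^5 per well, were transfected with synthetic miRNA (10 nM). DNA was stained with propidium iodide, and the cell-cycle-altered fraction was measured by FACS.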

BIRC6 mRNA = BIRC6 mRNA level by QRT-PCR; settings: AGS; 48 hours after transfection
Protocol: miR-BART15-3p was transfected to AGS by using lipofectamine-2000. Forty eight hours after the transfection, the cells were harvested and a QRT-PCR and a Western blotting were performed (FIGS. 12A and 12B). The BIRC6 mRNA level was not changed in the AGS to which miR-BART15-3p was transfected, while the protein level was decreased.
An miR-BART15-3p inhibitor was transfected to AGS-EBV by using lipofectamine-2000. Forty eight hours after the transfection, the cells were harvested and a QRT-PCR and a Western blotting were performed (FIGS. 12C and 12D). The BIRC6 mRNA level was not changed in the AGS-EBV to which an miR-BART15-3p inhibitor was transfected, while the protein level was increased.

3′UTR of BIRC6 = assay: Dual luciferase reporter assay (psiCHECK) in HEK293T, BIRC6 3'UTR; settings: for renilla value: 48 hours
Text: For an miRNA target test, to psiCHECK, which is a luciferase vector (FIG. 9) specially designed for an miRNA target test including a firefly gene and a renilla gene in the same vector, a 3′UTR of the five genes shown in Table 5, which might be targeted by miR-BART15-3p, was individually cloned to prepare a vector for a target test for each of the genes.
HEK293T was divided into a 96-well plate such that 5×10^3 cells were allocated to each well, and miR-BART15-3p and a vector for a target test were transfected by using lipofectamine2000. Forty eight hours after the transfection, a dual luciferase reporter assay (Virology. 412(2), 392-400 (2011)) was performed to normalize the results with reference to firefly luciferase and observe a variation of the renilla luciferase gene expression. […] The renilla value was not decreased by […] which was formed by mutating a seed part of miR-BART15-3p (FIG. 10).
BIRC6 3′UTR included two target sites which might be hybridized with miR-BART15-3p. To verify whether these two sites are directly targeted by miR-BART15-3p, a point mutation was performed at a psiC-BIRC6 site which was seed-matched with miR-BART15-3p to prepare psiC-BIRC6m1 and psiC-BIRC6m2. Both of the sites were mutated to prepare psiC-BIRC6m1m2 (FIG. 11A).
HEK293T was divided into a 96-well plate such that 5×10^3 cells were allocated to each well, and miR-BART15-3p and a vector for a target test were transfected by using lipofectamine-2000. Forty eight hours after the transfection, a dual luciferase reporter assay (Virology. 412(2), 392-400 (2011)) was performed to normalize the results with reference to firefly luciferase and observe a variation of the renilla luciferase gene expression. The renilla value was not decreased in psiC-BIRC6m1 and psiC-BIRC6m1m2 by, while the renilla value was decreased in psiC-BIRC6m2 as in the case of psiC-BIRC6.

[3] = AGS, mimic 10 nM in combination with 10 uM 5-FU

Substance: BART15-3p: EBV BART miRNA mimic, double stranded RNA; sense SEQ NO: 15, antisense SEQ NO: 16 (sense GUCAGUGGUUUUGUUUCCUUGA; antisense UCAAGGAAACAAAACCACUGAC; chemistry not given here)
- ratio of early apoptotic cell (AGS cell strain [1]; [3]): increased
- ratio of late apoptotic cell (AGS cell strain [1]; [3]): increased
- degree of apoptosis, combination with 5-FU versus sum of single treatments (AGS cell strain [1]; AGS, mimic 10 nM plus 10 uM 5-FU): synergetic effect
- ratio of early apoptotic cell (AGS cell strain [1]; AGS, mimic 10 nM treated alone): increased
- ratio of late apoptotic cell (AGS cell strain [1]; AGS, mimic 10 nM treated alone): increased
- Relative Apoptotic cell (AGS cell strain [1]; AGS): 1.665
- Relative Apoptotic cell (AGS cell strain [1]; AGS, listed as 15-3p): significantly higher
- effect on cell growth and apoptosis (summary statement) (AGS cell strain [1]; mimics transfected to AGS, tumor cell strain not infected with EBV): inhibit cell growth and promote apoptosis
- ratio of sub G1 after the 5-FU treatment (AGS cell strain [2]; mimic 10 nM plus 10 uM 5-FU (Example 6)): greatly increased
- percentage of sub G1 (AGS cell strain [2]; mimic 10 nM transfected alone, versus scrambled control): significantly higher
- Relative Sub G1 (AGS cell strain [2]): 2.508
- Relative Sub G1 (AGS cell strain [2]; listed as 15-3p): increased
- BIRC6 mRNA level (BIRC6 mRNA): not changed
- renilla value (3′UTR of BIRC6; psiC-BIRC6m1 (point mutation of site 1)): not decreased
- renilla value (3′UTR of BIRC6; psiC-BIRC6m1m2 (both sites mutated)): not decreased
- renilla value (3′UTR of BIRC6; psiC-BIRC6m2 (point mutation of site 2)): decreased
- renilla value (renilla luciferase, normalized to firefly) (3′UTR of BIRC6; psiCHECK with BIRC6 3′UTR (psiC-BIRC6), 48 hours after transfection, listed as miR-BART15-3p): decreased
